Assay results as given in ChEMBL document CHEMBL1255275, “Drug-regulated expression of Plasmodium falciparum P-glycoprotein homologue 1: a putative role for nuclear receptors” (Antimicrob Agents Chemother, 2008).
The source made the active and inactive calls. The calls are words filed in the database; no cut-off is given here.

Key:
[1] = system: Plasmodium falciparum; experiment: Increase in PfCRT expression chloroquine-sensitive Plasmodium falciparum K1Hf by Western blot relative to untreated control; type: functional, organism-based
[2] = system: Plasmodium falciparum; experiment: Increase in Pgh1 expression in chloroquine-sensitive Plasmodium falciparum K1AM by Western blot relative to untreated control; type: functional
[3] = system: Plasmodium falciparum; experiment: Increase in PfCRT expression in chloroquine-sensitive Plasmodium falciparum K1AM by Western blot relative to untreated control; type: functional, organism-based
[4] = system: Plasmodium falciparum; experiment: Increase in Pgh1 expression in chloroquine-resistant Plasmodium falciparum R1H6/2 by Western blot relative to untreated control; type: functional
[5] = system: Plasmodium falciparum; experiment: Increase in Pgh1 expression chloroquine-sensitive Plasmodium falciparum K1Hf by Western blot relative to untreated control; type: functional
[6] = system: Plasmodium falciparum; experiment: Increase in PfCRT expression in chloroquine-resistant Plasmodium falciparum R1H6/2 by Western blot relative to untreated control; type: functional, organism-based

SMILES: CCC1(c2ccccc2)C(=O)NC(=O)NC1=O [PHENOBARBITAL]
- Activity [1]: inactive
- fold change (FC) [2]: 4.7
- Activity [3]: inactive
- fold change (FC) [4]: 6.4
- fold change (FC) [5]: 5.4
- Activity [6]: inactive
